Results from patent US8367410B2, “Application of electrical stimulation for functional tissue engineering in vitro and in vivo” (Massachusetts Institute of Technology, priority 2003, dated 2013).
Marks after values point to notes of the source that are not given here.

Key:
[1] = tested on: engineered cardiac constructs; assay: Contractile activity of constructs during incubation with palmitoleic acid; assay type: cell-based, rat
Procedure: (§1) Contractile function. The contractile function of engineered cardiac constructs was evaluated by monitoring contractile activity upon electrical stimulation at ×10 magnification using a microscope (Nikon Diaphot). Each construct was placed in a 100-mm petri dish containing […] Tyrode solution (140 mM NaCl, 5.4 mM KC1, 0.33 mM NaH2PO4, 1.8 mM CaCl2, 1 mM MgCl2, 5 mM HEPES, and 5.5 MM D-glucose; pH 7.4) between two custom-made gold electrodes connected to a cardiac stimulator (Nihon Kohden). The temperature was maintained at 37° C. using a heating tape (VWR) attached to the bottom of the petri dish.
(§2) Constructs cultured in perfused cartridges were compared with constructs cultured in mixed dishes and to neonatal rat ventricles (full thickness slices obtained by bisecting the left ventricle parallel to the base apex line). The effect of palmitoleic acid (PA), a gap junction blocker (4), was investigated by incubating constructs or slices of native ventricles in PA (8.3 mM in Tyrode solution) for 20 min at 37° C. and then determining ET and MCR as described above. To test whether the effect of PA was reversible, constructs were transferred to Tyrode solution and retested after an additional 20 min at 37° C.

[2] = tested on: engineered cardiac constructs cultured in mixed dishes; assay: Contractile function (ET, MCR) of dish-grown constructs, palmitoleic acid treatment and washout; assay type: cell-based, rat
Procedure: as §1
(§3) The maximum capture rate (MCR) was defined as the maximum pacing frequency (in beats/min) for a synchronous stimulus response of the constructs. To measure MCR, the stimulation frequency was increased (from 60 to 600 beats/min, in 20 beats/min increments) at a constant voltage (equal to either 150% or 200% of the ET). The construct response was measured at each frequency, and the frequency was increased until the contractions became asynchronous, irregular, or completely ceased. The maximum frequency for synchronous contractions was recorded as the MCR. The value of ET, which was different from one construct to another due to the differences in their structures, served as the baseline voltage for the measurement of MCR.
as §2

neonatal rat ventricles = assay: Contractile function (ET, MCR) of neonatal rat ventricle slices, palmitoleic acid treatment and washout; assay type: cell-based; settings: mean +/- SE
Procedure: as §1, §3, §2

[3] = tested on: engineered cardiac constructs cultured in perfused cartridges; assay: Contractile function (ET, MCR) of perfused constructs, palmitoleic acid treatment and washout; assay type: cell-based, rat; settings: mean +/- SE
Procedure: as §1, §3, §2

[4] = dish-grown construct, after washout of PA, mean +/- SE
[5] = perfused construct, after washout of PA

CCCCCC/C=C\CCCCCCCC(=O)O [PA, palmitoleic acid]
Contractile activity after the washout of PA ([1]; after transfer to Tyrode solution, 20 min at 37° C.): Contractile activity resumed | Voltage at which synchronous construct contractions could not be induced ([1]; upon incubation with PA (8.3 mM in Tyrode solution)): > 9.9 V | ET (excitation threshold), After PA ([2]; dish-grown construct (7 days at 25 rpm), after washout of PA (8.3 mM, 20 min), 60 beats/min, mean +/- SE): 4.4 +/− 0.1^ab V | MCR at 150% ET, After PA [2, 4]: 378 +/− 31^c beats/min | MCR at 200% ET, After PA [2, 4]: 380 +/− 31^c beats/min | Recovery of MCR after PA washout ([2]; dish-grown constructs): failed to recover their baseline levels | ET (excitation threshold), After PA (neonatal rat ventricles; after washout of PA (8.3 mM, 20 min, 37° C.), stimulation 60 beats/min): 1.5 +/− 0.1 V | MCR at 150% ET, After PA (neonatal rat ventricles; after washout of PA): 465 +/− 15 beats/min | MCR at 200% ET, After PA (neonatal rat ventricles; after washout of PA): 427 +/− 58 beats/min | ET (excitation threshold), After PA ([3]; perfused construct (7 days at 500 μm/s), after washout of PA (8.3 mM, 20 min), 60 beats/min): 3.5 +/− 0.1^a V | MCR at 150% ET, After PA [3, 5]: 415 +/− 35 beats/min | MCR at 200% ET, After PA [3, 5]: 435 +/− 45 beats/min
